Assay results reported in patent publication US20260125374A1, “PI3K-ALPHA INHIBITORS AND METHODS OF MAKING AND USING THE SAME” (Relay Therapeutics, Inc., priority 2021, published 2026).
≈ marks a conversion by molar mass, not a printed value.

Assays:
Format in all cases: physicochemical
[1] = Suspension stability at 25° C.; settings: for Purity / Solubility / pH / Chiral purity (solids) / Solubility (μg/mL) / Chiral purity, liquid / Chiral purity, solid: 25° C.; for Solubility (μg/mL): LOQ: 0.25 μg/mL
Experimental: Suspension stability: Suspension stability of I-1 Form A and the 2 salt candidates was investigated in pure water, 0.5% (w/w) Tween 80 aqueous solution and 0.5% (w/w) MC (400 cP)+2% (w/w) Vitamin E TPGS aqueous solution at 25° C. for 2 h and 24 h. Target concentration was 2 mg/mL.
To confirm whether racemization occurs for the 2 salts in 0.5% (w/w) MC (400 cP)+2% (w/w) Vitamin E TPGS aqueous solution, the suspension stability in this vehicle was repeated at target concentration of 10 mg/mL. […] The hygroscopicity of these salts were further investigated.
Accurate 10 mg of I-1 Form A, 12.83 mg of I-3 Form A, 11.58 mg of I-4 Form A was weighed into a 8 mL glass vial, respectively. 5 mL of suspension vehicle was added, respectively. The salt amount used is equivalent to 10 mg anhydrous free form. These suspensions were stirred at 25° C. with 400 rpm. These suspensions were taken out at 2 hours and 24 hours, then centrifuged at 14,000 rpm for 5 min. The supernatants were analyzed by HPLC and pH meter. Solids obtained (wet cakes) were characterized by XRPD and HPLC to determine the chiral purity.
Accurate […] of I-3 Form A, 46.3 mg of I-4 Form A was weighed into a 8 mL glass vial, respectively. 4 mL of solubility medium was added, respectively. The salt amount used is equivalent to 40 mg anhydrous free form. 4 mL of the aqueous vehicle (0.5% (w/w) MC (400 cP) and 2% (w/w) Vitamin E TPGS in water) was added, respectively. These suspensions were stirred at 25° C. with 400 rpm. These suspensions were taken out at 2 hours and 24 hours, then centrifuged at 14,000 rpm for 5 min. The supernatants were analyzed by HPLC for the solubility and chiral purity and analyzed by pH meter. Solids obtained (wet cakes) were characterized by XRPD and HPLC for chiral purity.

[2] = Solubility study at 37° C. (buffer, water, bio-relevant media, MeOH/DCM); settings: listed as I-4 Form A
Experimental: In addition, residual solids were checked by chiral HPLC to confirm whether racemization occurs.
Accurate 4 mg of I-1 Form A, 5.13 mg of I-3 Form A, 4.63 mg of I-4 Form A was weighed into a 8 mL glass vial, respectively. 2 mL of solubility medium was added. The salt amount used is equivalent to 4 mg anhydrous free form. Obtained suspensions/solutions were stirred at 37° C. at 400 rpm for 2 hours and 24 hours and then centrifuged at 37° C. at 14,000 rpm for 5 min. Supernatants were analyzed by UPLC and PH meter for solubility and pH value, respectively. Residual solids (wet cakes) were characterized by XRPD to determine physical form and then analyzed by HPLC for chiral purity.

Bulk stability (1 week) = settings: listed as I-4 Form A; for Bulk (HPLC) chiral purity / Bulk (HPLC) purity / Bulk (XRPD): Solid state
Experimental: Bulk stability of I-1 Form A and the 2 salt candidates was investigated at 25° C./92% RH in an open container, at 40° C./75% RH in an open container and at 60° C. in a tight container over 1 week. […] All the 3 salts show no obvious racemization based on chiral purity results.
I-1 Form A and the 2 salts were placed at 25° C./92% RH in an open container, at 40° C./75% RH in an open container and at 60° C. in a closed container for I week. Samples after I week were characterized by XRPD and HPLC and inspected for color change.

[3] = 2 mg/mL, 0.5%(w/w) MC(400 cP) and 2%(w/w) Vitamin E TPGS in water, 2 h, listed as I-4 Form A
[4] = 2 mg/mL, 0.5%(w/w) MC(400 cP) and 2%(w/w) Vitamin E TPGS in water, 24 h, listed as I-4 Form A
[5] = 2 mg/mL, 0.5%(w/w) Tween 80 in water, 2 h, listed as I-4 Form A
[6] = 2 mg/mL, 0.5%(w/w) Tween 80 in water, 24 h, listed as I-4 Form A
[7] = 2 mg/mL, Pure water, 2 h, listed as I-4 Form A
[8] = 2 mg/mL, Pure water, 24 h, listed as I-4 Form A
[9] = 10 mg/mL, 0.5(w/w) MC(400 cP) and 2%(w/w) Vitamin E TPGS in water, 2 h, listed as I-4 Form A
[10] = 10 mg/mL, 0.5(w/w) MC(400 cP) and 2%(w/w) Vitamin E TPGS in water, 24 h, listed as I-4 Form A
[11] = 25° C./92% RH, open container, 1 week
[12] = 40° C./75% RH, open container, 1 week
[13] = 60° C., tight container, 1 week

For N#Cc1c(-c2cc(NC(=O)c3cc(F)cc(C(F)(F)F)c3)c3c(c2)C(=O)N[C@H]3c2cc(F)ccc2Cl)ccc2ncnn12 [Compound I-4], the “physical form of residual solids after the test (XRPD)” value ([1]; 0.5% MC (400 cP)+2% Vitamin E TPGS, target 10 mg/mL) was “converted to amorphous form”, the Purity [1, 3] was 99.2% and the “Solubility” value [1, 3] was 1210.7 µg/mL (≈ 1990 µM). The pH [1, 3] was 2.72, the Purity [1, 4] was 99.6% and the “Solubility” value [1, 4] was 2018.8 µg/mL (≈ 3320 µM). The pH [1, 4] was 2.61, the “Chiral purity (solids)” value [1, 5] was 99.7% and the Purity [1, 5] was 99.5%. For the same molecule, the “Solubility” value [1, 5] was 342.6 µg/mL (≈ 563 µM), the pH [1, 5] was 2.78 and the “Chiral purity (solids)” value [1, 6] was 95.8%. The Purity [1, 6] was 99.6%, the pH [1, 6] was 2.63 and the “Solubility (μg/mL)” value ([1]; 2 mg/mL, Pure water, 2 h) was “<LOQ”. For the same molecule, the “Chiral purity (solids)” value [1, 7] was 99.7%, the Purity [1, 7] was 99.5% and the pH [1, 7] was 2.81. For the same molecule, the “Solubility (μg/mL)” value ([1]; 2 mg/mL, Pure water, 24 h) was “<LOQ”, the “Chiral purity (solids)” value [1, 8] was 99.7% and the Purity [1, 8] was 99.4%. The pH [1, 8] was 2.61, the Purity ([1]; 10 mg/mL, 0.5(w/w) MC(400 cP) and 2%(w/w) Vitamin E TPGS in water, 2 h) was 99.7% and the “Chiral purity, liquid” value [1, 9] was 100%;. The “Chiral purity, solid” value [1, 9] was 99.8%, the pH [1, 9] was 1.89 and the “Chiral purity, liquid” value [1, 10] was 99.8%;. For the same molecule, the “Chiral purity, solid” value [1, 10] was 99.7%, the Purity [1, 10] was 99.6% and the pH [1, 10] was 1.86. For the same molecule, the solubility at 2 h ([1]; 25 °C, aqueous with cosolvent or surfactant or cyclodextrin, thermodynamic from solid, 10 mg/mL, 0.5(w/w) MC(400 cP) and 2%(w/w) Vitamin E TPGS in water, 2 h) was 3950 µg/mL (≈ 6480 µM), the solubility at 24 h ([1]; 25 °C, aqueous with cosolvent or surfactant or cyclodextrin, thermodynamic from solid, 10 mg/mL, 0.5(w/w) MC(400 cP) and 2%(w/w) Vitamin E TPGS in water, 24 h) was 3810 µg/mL (≈ 6260 µM) and the Initial chiral purity ([1]; before suspension, listed as I-4 Form A) was “Initial chiral purity: 99.5%”. For the same molecule, the solubility at 24 h ([1]; suspension in 0.5% (w/w) Tween 80 in water, 25 °C, aqueous with cosolvent or surfactant or cyclodextrin, thermodynamic from solid, 2 mg/mL, 0.5%(w/w) Tween 80 in water, 24 h) was 16.3 µg/mL (≈ 26.8 µM), the “Chiral purity” value ([2]; FaSSIF-V1, pH 6.5, 2 hours) was “purity: 98.3%)” and the Solubility ([2]; FaSSIF-V1, pH 6.5, 2 hours) was 44.1 μg/mL(chiral. For the same molecule, the “Chiral purity (solids)” value ([2]; FaSSIF-V1, pH 6.5, 24 hours) was 99.3%), the Solubility ([2]; FaSSIF-V1, pH 6.5, 24 hours) was 0.4 µg/mL (≈ 0.657 µM) and the pH of supernatant ([2]; FaSSIF-V1, pH 6.5, 24 hours) was 6.15. For the same molecule, the “Chiral purity” value ([2]; FeSSIF-V1, pH 5.0, 2 hours) was “purity: 97.7%)”, the Solubility ([2]; FeSSIF-V1, pH 5.0, 2 hours) was 239.1 μg/mL(chiral and the “Chiral purity (solids)” value ([2]; FeSSIF-V1, pH 5.0, 24 hours) was 85.2%). For the same molecule, the Solubility ([2]; FeSSIF-V1, pH 5.0, 24 hours) was 16.2 µg/mL (≈ 26.6 µM), the pH of supernatant ([2]; FeSSIF-V1, pH 5.0, 24 hours) was 4.84 and the Solubility ([2]; MeOH/DCM (1:2, v/v), 2 hours) was over 111000 µg/mL. The Solubility ([2]; MeOH/DCM (1:2, v/v), 24 hours) was over 111000 µg/mL, the Solubility ([2]; SGF, pH 2.0, 2 hours) was 3.2 µg/mL (≈ 5.26 µM) and the “Chiral purity (solids)” value ([2]; SGF, pH 2.0, 24 hours) was 99.2%). For the same molecule, the Solubility ([2]; SGF, pH 2.0, 24 hours) was 2.6 µg/mL (≈ 4.27 µM), the pH of supernatant ([2]; SGF, pH 2.0, 24 hours) was 1.89 and the “Chiral purity (solids)” value ([2]; Water, 24 hours) was 99.2%). For the same molecule, the pH of supernatant ([2]; Water, 24 hours) was 2.52, the “solubility in MeOH/DCM (1:2, v/v)” value [2] was over 111000 µg/mL and the “Chiral purity (solids)” value ([2]; pH 2, HCl, 24 hours) was 99.3%). The pH of supernatant ([2]; pH 2, HCl, 24 hours) was 1.89, the “bulk stability (chemical and physical)” value (Bulk stability (1 week); 25° C./92% RH open, 40° C./75% RH open, 60° C. tight container, 1 week) was “chemically stable but physically unstable at 25° C./92% RH and 40° C./75% RH” and the “Bulk (HPLC) chiral purity” value (Bulk stability (1 week); [11]) was 98.3%. For the same molecule, the “Bulk (HPLC) purity” value (Bulk stability (1 week); [11]) was 99.4%/, the “Bulk (XRPD)” value (Bulk stability (1 week); [11]) was “Form changed” and the “Bulk (HPLC) chiral purity” value (Bulk stability (1 week); [12]) was 99.1%. For the same molecule, the “Bulk (HPLC) purity” value (Bulk stability (1 week); [12]) was 99.0%/, the “Bulk (XRPD)” value (Bulk stability (1 week); [12]) was “Form changed” and the “Bulk (HPLC) chiral purity” value (Bulk stability (1 week); [13]) was 99.2%. The “Bulk (HPLC) purity” value (Bulk stability (1 week); [13]) was 99.5%/, the “Chiral purity (initial)” value (Bulk stability (1 week); before storage) was 99.5% and the “Initial purity by HPLC” value (Bulk stability (1 week); before storage) was 99.6%.
